{"source": "patent US11291235B2", "about": "“Phloretin” (Firmenich SA, priority 2016, dated 2022)", "assay_type_in_all_cases": "in vivo", "key": {"[1]": {"experiment": "Sensory evaluation of strawberry yogurt sweetened with 250 ppm Stevia (SG95), with and without phloretin"}, "[2]": {"experiment": "Sensory evaluation of pomegranate juice (POM Brand) sweetened with 150 ppm SG95, with and without phloretin"}, "[3]": {"experiment": "Sensory evaluation of tropical flavored soft drink containing 7% sucrose, with and without phloretin"}, "[4]": {"experiment": "Sensory evaluation of tropical juice drink sweetened with sucrose (5%) and Stevia (25 ppm), with and without phloretin"}, "[5]": {"experiment": "Sensory assessment of pasteurized sweet water solution of pea protein isolate, with and without phloretin", "settings": "30 ppm phloretin, eight panelists, 0 to 5 scale, Duncan test", "description": "To evaluate sensory effect of phloretin on pea protein solution Evaluation in blind and randomized conditions of pasteurized sweet water solution of pea protein isolate • 1. Control: no phloretin added • 2. Test: 30 ppm phloretin added (via a presolution 10% in propylene glycol) Weigh and premix protein with sugar (600 gram preparation) Dispersion/solubilisation of protein-sugar-water to obtain a “mother mixture”: disperse mix protein/sugar in water (becher—deionized water 40° C.—Mini Ultra-Turrax T18—Speed 2—time:7 minutes). The same “mother mixture” for both the Control and Test trials. Add phloretin (fresh dilution 10% in propylene Glycol) in Test trial. Split each trials in 2 glass bottles: 100 g for pre-evaluation and generation of sensory attributes—200 gram for sensory assessment Pasteurisation (water bach—95° C.—30 minutes). Cooling bottles at room temperature—Storage in fridge until tasting. Perform Sensory assessment at room temperature. Eight panelists were asked to rate intensity of sensory attributes using a 0 to 5 structured scale (from 0 ‘not perceptible’ to 5 ‘strong intensity’). Sensory descriptors were selected to assess taste, tactile and aromatic stimuli Data treatment was run with XLSTAT software (Duncan mean comparison test). Sensory attributes were selected during a preliminary series of applications evaluated in a free-description mode Symbols for significant differences * at 95% (See FIG. 5). […] Other sensory attributes related to taste (“Sweetness”, “Bitterness”), tactile (mouthcoating) or aromatic stimuli (“cereal”) were unmodified."}, "[6]": {"experiment": "Tasting of phloretin in water or model beverage solution of water and citric acid", "settings": "tasted in water or in water and citric acid"}, "[7]": {"experiment": "Phloretin as taste modifier in foods and beverages containing steviol glycosides and rebaudioside"}, "[8]": {"settings": "20 ppm Phloretin, strawberry yogurt with 250 ppm Stevia, in words"}, "[9]": {"settings": "sensory score, Stevia @250 ppm + 20 ppm Phloretin, strawberry yogurt, n = 29"}, "[10]": {"settings": "35 ppm Phloretin, pomegranate juice with 150 ppm Stevia, in words"}, "[11]": {"settings": "sensory score, Pom Juice + SG95 @150 ppm + Phloretin @ 35 ppm"}, "[12]": {"settings": "30 ppm Phloretin, tropical soft drink with 7% sucrose, in words"}, "[13]": {"settings": "sensory score, 7% Sucrose + 30 ppm Phloretin, tropical soft drink"}, "[14]": {"settings": "30 ppm Phloretin, sugar (5%) and Stevia (25 ppm) tropical juice drink, in words"}, "[15]": {"settings": "sensory score, Sucrose (5%) and Stevia (25 ppm) control + Phloretin @ 30 ppm, tropical juice drink"}}}
{"smiles": "O=C(CCc1ccc(O)cc1)c1c(O)cc(O)cc1O", "note": "[Phloretin, 3-(4-hydroxyphenyl)-1-(2,4,6-trihydroxyphenyl)propan-1-one]", "values": [{"measurement": "Strawberry flavor intensity versus control", "setting": "[1]; [8]", "result": "higher"}, {"measurement": "licorice taste versus control", "setting": "[1]; [8]", "result": "significantly lower"}, {"measurement": "Acidity", "setting": "[1]; [9]", "result": 2.56}, {"measurement": "Fruity", "setting": "[1]; [9]", "result": 3.25}, {"measurement": "Green", "setting": "[1]; [9]", "result": 2.38}, {"measurement": "Jammy", "setting": "[1]; [9]", "result": 3.19}, {"measurement": "Licorice", "setting": "[1]; [9]", "result": 1.44}, {"measurement": "Long Lasting", "setting": "[1]; [9]", "result": 2.56}, {"measurement": "Strawberry Flavor", "setting": "[1]; [9]", "result": 3.56}, {"measurement": "Sweetness", "setting": "[1]; [9]", "result": 3.38}, {"measurement": "Bitterness Intensity, effect of phloretin", "setting": "[2]; [10]", "result": "significantly reduces"}, {"measurement": "Pomegranate flavor intensity, effect of phloretin", "setting": "[2]; [10]", "result": "significantly increasing"}, {"measurement": "Sourness intensity, effect of phloretin", "setting": "[2]; [10]", "result": "significantly reduces"}, {"measurement": "Astringent", "setting": "[2]; [11]", "result": 4.1}, {"measurement": "Berry Flv intensity", "setting": "[2]; [11]", "result": 6.01}, {"measurement": "Bitterness", "setting": "[2]; [11]", "result": 3.35}, {"measurement": "Pomegranate Flv intensity", "setting": "[2]; [11]", "result": 6.68}, {"measurement": "Sourness intensity", "setting": "[2]; [11]", "result": 4.75}, {"measurement": "Sweetness intensity", "setting": "[2]; [11]", "result": 5.79}, {"measurement": "acidity/sourness, effect of phloretin", "setting": "[3]; [12]", "result": "significantly reduced"}, {"measurement": "astringency, effect of phloretin", "setting": "[3]; [12]", "result": "significantly reduced"}, {"measurement": "bitterness, effect of phloretin", "setting": "[3]; [12]", "result": "significantly reduced"}, {"measurement": "Acidity/Sourness intensity", "setting": "[3]; [13]", "result": 3.27}, {"measurement": "Astringency intensity", "setting": "[3]; [13]", "result": 2.05}, {"measurement": "Bitterness intensity", "setting": "[3]; [13]", "result": 1.9}, {"measurement": "Mango Flavor intensity", "setting": "[3]; [13]", "result": 6.04}, {"measurement": "Off-Note intensity", "setting": "[3]; [13]", "result": 1.72}, {"measurement": "Overall Flavor intensity", "setting": "[3]; [13]", "result": 6.76}, {"measurement": "Passion Fruit Flavor intensity", "setting": "[3]; [13]", "result": 5.69}, {"measurement": "Tropical Flavor intensity", "setting": "[3]; [13]", "result": 6.55}, {"measurement": "astringency, effect of phloretin", "setting": "[4]; [14]", "result": "significantly reduced"}, {"measurement": "bitterness, effect of phloretin", "setting": "[4]; [14]", "result": "significantly reduced"}, {"measurement": "Acidity", "setting": "[4]; [15]", "result": 2.93}, {"measurement": "Astringency", "setting": "[4]; [15]", "result": 1.21}, {"measurement": "Bitterness", "setting": "[4]; [15]", "result": 0.57}, {"measurement": "Long-lasting (sweet)", "setting": "[4]; [15]", "result": 0.50}, {"measurement": "Off-notes", "setting": "[4]; [15]", "result": 1.21}, {"measurement": "Overall Flavor", "setting": "[4]; [15]", "result": 3.71}, {"measurement": "Sweetness", "setting": "[4]; [15]", "result": 2.29}, {"measurement": "Sweetness, effect of phloretin", "setting": "[5]", "result": "unmodified"}, {"measurement": "aromatic stimuli (cereal), effect of phloretin", "setting": "[5]", "result": "unmodified"}, {"measurement": "bitterness, effect of phloretin", "setting": "[5]", "result": "unmodified"}, {"measurement": "score in astringency, effect of phloretin", "setting": "[5]", "result": "significantly reduce"}, {"measurement": "score in off-tastes, effect of phloretin", "setting": "[5]", "result": "significantly reduce"}, {"measurement": "tactile (mouthcoating), effect of phloretin", "setting": "[5]", "result": "unmodified"}, {"measurement": "own flavor of phloretin", "setting": "[6]", "result": "nearly no flavor on its own"}, {"measurement": "off-note masking: bitterness", "setting": "[7]", "result": "reduced bitterness"}, {"measurement": "off-note masking: licorice", "setting": "[7]", "result": "reduced licorice"}, {"measurement": "off-note masking: linger", "setting": "[7]", "result": "reduced linger"}]}
